Data reported in paper PMC4810081, “Venetoclax (ABT-199) Might Act as a Perpetrator in Pharmacokinetic Drug–Drug Interactions” (Pharmaceutics, 2016).

Columns and labels:
P-gp = P-gp inhibition, calcein assay in P388/dx cells; assay type: in vitro ADME; details: mouse, P388/dx cells over-expressing murine mdr1a/b, probe calcein
Procedure: P388 and P388/dx cells. For testing P-gp inhibition, the murine monocytic leukemia cell line P388/dx over-expressing murine mdr1a/b and the corresponding parental cell line P388 were used. Both cell lines were kindly provided by D. Ballinari (Pharmacia & Upjohn, Milano, Italy). The cells were cultured under standard cell culture conditions with an RPMI 1640 medium supplemented with 10% FCS, 2 mM of glutamine, […] of β-mercaptoethanol, 100 U/mL of penicillin, and 100 µg/mL of streptomycin sulfate. For maintaining P-gp expression, the culture medium for P388/dx was supplemented with 0.43 µM of doxorubicin. One day before the assay, both cell lines were fed with a doxorubicin-free culture medium.
P-gp inhibition was assessed with the calcein assay in P388/dx cells as described previously. Inhibition of P-gp increases intracellular calcein fluorescence in these cells. Each venetoclax concentration (0.005–50 µM) was tested in octuplet, and the experiment was performed in quadruplicate.

OATP1B1 = molecular target: T1, OATP1B1 (Homo sapiens, UniProt Q9Y6L6); assay: OATP1B1 inhibition, 8-FcA uptake in HEK-OATP1B1 cells; assay type: in vitro ADME
T1 construct: expressed in transfected cells; host or cells: HEK293 (HEK-OATP1B1; gift of D. Keppler)
Procedure: HEK293 cells. For assessing inhibition of OATP1B1 and OATP1B3, the human embryonic kidney cell line HEK293 stably transfected with OATP1B1 (HEK-OATP1B1), OATP1B3 (HEK-OATP1B3), or the empty control vector (HEK293-VCG418) were used. Cells were cultured under standard cell culture conditions with DMEM supplemented with 10% FCS, 2 mM of glutamine, 100 U/mL of penicillin, 100 µg/mL of streptomycin sulfate, and 800 µg/mL of G418 to maintain over-expression. Cells were kindly provided by D. Keppler (German Cancer Research Centre, Heidelberg, Germany).
Inhibition of OATP1B1 and OATP1B3 was analyzed in HEK-OATP1B1 and HEK-OATP1B3 cells by quantifying the uptake of the fluorescent substrate 8-FcA by flow cytometry as described previously. HEK293-VCG418 cells were used as a control. Inhibition of OATPs leads to a reduced uptake of 8-FcA into the cells. Each experiment was performed at least in triplicate, and venetoclax was tested from 0.05 up to 100 µM.

[1] = tested on: cell lines used for P-gp, BCRP, and OATP inhibition assays; assay: Cytotoxicity assay (Cytotoxicity Detection Kit); assay type: cell-based; details: up to 100 µM, all cell lines used
Procedure: Prior to P-gp, BCRP, and OATP inhibition assays, venetoclax was tested in the respective cell lines for cytotoxic effects with the Cytotoxicity Detection Kit (Roche Applied Science, Mannheim, Germany). Venetoclax was not cytotoxic up to 100 µM in all cell lines used.

[2] = Growth inhibition assay in MDCKII-MRP2 cells; assay type: cell-based; details: dog, MDCKII-MRP2 cells (MRP2 over-expressing)
Procedure: MDCKII cells. […] Moreover, MDCKII-BCRP cells were used to assess BCRP inhibition by venetoclax. MDCKII over-expressing cell lines were kindly provided by A. H. Schinkel and P. Borst (Amsterdam, The Netherlands). The parental cell line MDCKII (available at ATCC, Manassas, VA, USA) was used as a control. The cells were cultured in Dulbecco’s Modified Eagle’s Medium (DMEM) containing 10% FCS, 2 mM of glutamine, 100 U/mL of penicillin, and 100 µg/mL of streptomycin sulfate. Growth inhibition assays in LS180 cells were conducted to determine suitable maximum concentrations for the induction assay without profound antiproliferative effects. Proliferation was quantified by crystal violet staining of the surviving cells as described previously. […] Growth inhibition assays in MDCKII, and their MRP2 or BCRP over-expressing counterparts ([…], MDCKII-BCRP) and in LLC-PK1 and the corresponding P-gp over-expressing cell line L-MDR1 were conducted to evaluate whether venetoclax sustains its efficacy in MDR cell lines.

UGT1A3 = assay: Induction assay, UGT1A3 mRNA by real-time RT-PCR in LS180 cells; assay type: in vitro ADME, human; details: four days, 10 µM
Procedure: LS180 cells. The human colon adenocarcinoma cell line LS180 (available at ATCC, Manassas, VA, USA) is one of the standard models for investigating pregnane X receptor (PXR) and aryl hydrocarbon receptor (AhR) mediated induction and was thus used for induction experiments. Cells were cultured under standard cell culture conditions with DMEM supplemented with 10% FCS, 2 mM of glutamine, 100 U/mL of penicillin, 100 µg/mL of streptomycin sulfate, and 0.1 mM of nonessential amino acids.
For the induction experiments, LS180 cells were seeded in 75 cm^2 culturing flasks and incubated for three days. […]
RNA was isolated using the GenElute™ Mammalian Total RNA Miniprep Kit, and cDNA was synthesized with the RevertAid™ H Minus First Strand cDNA Synthesis Kit according to the manufacturer's instructions. mRNA expression was quantified by real-time RT-PCR with the LightCycler® 480 (Roche Applied Science, Mannheim, Germany) as described previously. […] Data were evaluated via calibrator-normalized relative quantification with efficiency correction using the LightCycler® 480 software version 1.5 (Roche Applied Science, Mannheim, Germany). […] The following target genes were quantified: CYP1A1, CYP1A2, CYP3A4, ABCB1, ABCC2, ABCG2, SLCO1B1 (coding for OATP1B1), UDP-glucuronosyltransferase 1A3 (UGT1A3), and UGT1A9.

CYP1A2 = assay: Western blot of CYP1A2 protein expression in LS180 cells; assay type: in vitro ADME, human; details: four days
Procedure: For the induction experiments, LS180 cells were seeded in 75 cm^2 culturing flasks and incubated for three days. Cells were then treated with a culture medium containing venetoclax (0.01–10 µM) in quintuplicate for four consecutive days. Rifampicin (20 µM) served as a positive control for PXR-driven genes and culture medium as a negative control. All incubation solutions were adjusted to 0.02% DMSO. After harvesting, cells were split for RNA and protein extraction.
To exemplarily verify the effects of venetoclax on mRNA expression, protein expressions of P-gp and CYP1A2 were analyzed in triplicate by SDS polyacrylamide gel electrophoresis (SDS-PAGE) and Western blotting. In brief, cell lysates containing 20 µg protein were mixed with 5× sample buffer (containing Tris–HCl, SDS, DTT, bromophenol blue, and glycerol) and subjected to 10% SDS-PAGE. Afterwards, proteins were electrotransferred to nitrocellulose nitrate membranes. Blots were blocked by incubation for 20–40 min with 5% Slim-Fast® (w/v) in phosphate-buffered saline containing 0.1% Tween®20. […] Bands were visualized by enhanced chemiluminescence using the SuperSignal®West Pico Chemiluminescent Substrate Kit and recorded by FluorChem Q SA AlphaView Version 3.2.2, Cell Biosciences (Santa Clara, CA, USA).

T1 sequence (Q9Y6L6 whole entry): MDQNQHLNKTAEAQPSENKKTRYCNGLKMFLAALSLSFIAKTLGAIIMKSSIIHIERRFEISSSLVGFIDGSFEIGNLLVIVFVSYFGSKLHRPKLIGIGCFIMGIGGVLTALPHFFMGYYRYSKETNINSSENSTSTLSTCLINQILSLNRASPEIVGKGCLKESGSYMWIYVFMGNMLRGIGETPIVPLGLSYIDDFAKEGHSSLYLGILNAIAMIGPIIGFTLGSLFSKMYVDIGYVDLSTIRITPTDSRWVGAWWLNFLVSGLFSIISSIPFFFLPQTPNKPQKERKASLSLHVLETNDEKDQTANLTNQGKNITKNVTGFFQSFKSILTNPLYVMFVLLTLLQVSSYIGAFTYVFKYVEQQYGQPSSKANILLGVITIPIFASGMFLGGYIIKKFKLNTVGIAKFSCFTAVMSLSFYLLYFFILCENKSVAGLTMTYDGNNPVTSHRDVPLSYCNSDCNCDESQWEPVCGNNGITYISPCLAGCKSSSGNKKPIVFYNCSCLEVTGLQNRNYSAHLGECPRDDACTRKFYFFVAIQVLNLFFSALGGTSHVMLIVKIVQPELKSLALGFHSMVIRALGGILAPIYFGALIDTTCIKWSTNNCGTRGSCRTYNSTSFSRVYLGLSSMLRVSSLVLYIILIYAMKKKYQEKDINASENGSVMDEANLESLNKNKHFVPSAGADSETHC

Q: With `CC1(C)CCC(CN2CCN(c3ccc(C(=O)NS(=O)(=O)c4ccc(NCC5CCOCC5)c([N+](=O)[O-])c4)c(Oc4cnc5[nH]ccc5c4)c3)CC2)=C(c2ccc(Cl)cc2)C1` [Venetoclax] as the compound, how does the IC50 (P-gp) read?
A: Its IC50 is 30 ± 3.7 µM.

Q: And the IC50 (OATP1B1)?
A: Its IC50 is 47.8 ± 10.1 µM.

Q: What about the cytotoxic effects [1] of the same compound?
A: The cytotoxic effects was “not cytotoxic”.

Q: And the IC50 [2]?
A: The IC50 was 17.2 ± 1.8 µM.

Q: What about the “mRNA expression of UGT1A3” value (UGT1A3) of the same compound?
A: The value was “induced”.

Q: And the CYP1A2 protein expression (CYP1A2)?
A: The CYP1A2 protein expression was “induction”.
